Measured values published in US20050209157A1, “Short bioactive peptides and methods for their use” (priority 2001, published 2005).
Values after ≈ are worked out from the molar mass of the structure shown. Where two headings read alike, the source gives them in different places. No end group written: not given here.

Tests used:
in vitro [1] = conditions: human, WI38 normal lung fibroblast cells
[2] = test system: human red blood cells (RBC); assay: in vitro; assay type: cell-based; conditions: hemolytic assay, concentration at 50% hemolysis, 1 hour at 37° C.
H1299 = assay: Anti-cancer assay, MTT, LD50; assay type: cell-based; conditions: 24 hours with peptide, lung large cell carcinoma
Excerpt: (§1) Numbers are LD50 values (μg/mL).

HeLaS3 = assay: Anti-cancer assay, MTT, LD50; assay type: cell-based; conditions: 24 hours with peptide, cervical carcinoma
Excerpt: as §1

PC3 = assay: Anti-cancer assay, MTT, LD50; assay type: cell-based; conditions: 24 hours with peptide, prostate adenocarcinoma
Excerpt: as §1

in vitro [3] = assay type: cell-based, human; conditions: human, human red blood cells
S. typhimurium 14028S = assay type: cell-based, Salmonella typhimurium; conditions: mean of three; 16 to 20 hours at 35° C.; in µg/mL
E. coli UB1005 = assay type: cell-based, Escherichia coli; conditions: mean of three; 16 to 20 hours at 35° C.; in µg/mL
P. aeruginosa H374 = assay type: cell-based, Pseudomonas aeruginosa; conditions: mean of three; 16 to 20 hours at 35° C.
BMKC = assay: Anti-cancer assay, MTT, LD50; assay type: cell-based; conditions: BMKC cloned melanoma line, 24 hours with peptide
Excerpt: as §1

MCF7 = assay: Anti-cancer assay, MTT, LD50; assay type: cell-based; conditions: MCF7 breast adenocarcinoma line, MTT, 24 hours with peptide
Excerpt: as §1

SW480 = assay: Anti-cancer assay, MTT, LD50; assay type: cell-based; conditions: SW480 colon adenocarcinoma line, 24 hours with peptide
Excerpt: as §1

[4] = test system: Stapholococcus aureus ATCC 25923; assay: Antimicrobial assay I, modified protocol (tryptic soy broth), MBC; conditions: minimum bactericidal concentration, Table 4
[5] = test system: Pseudomonas aeruginosa ATCC 27853; assay: as above; conditions: minimum bactericidal concentration, Table 4
Description: (§2) The preparation of all media, stock solutions, and dilutions took place in a laminar flow hood to prevent contamination. Bacterial cells were freshly grown on antibiotic medium 2 agar slants (pH 7.0 at 25° C.). Bacteria were suspended and diluted in antibiotic medium 3 to about 10^4 cfu/ml and used as the inoculum. Sample solutions (100 μl/well) were added to plates according to the plate layout. Inoculum (100 μl/well) was added to achieve a final concentration of 5×10^3 cfu/ml. Negative controls received 100 μl saline and 100 μl growth medium. Positive controls received 100 μl saline and 100 μl inoculum. Bacterial plates were incubated at 37° C. for 24 hours.
(§3) However, the data for Table 4 were obtained with a modified protocol wherein the medium was tryptic soy broth, inocolum strength was approximately 10^4 CFU per ml, and values determined were minimum bactericidal concentrations (MBC) or minimum fungicidal concentrations (MFC).
(§4) MBC or MFC values are in μg/mL. E. coli is Escherichia coli ATCC accession number 25922; P. aerug is Pseudomonas aeruginosa ATCC accession number 27853, S. aur. is Stapholococcus aureus ATCC accession number 25923; Candida is Candida albicans ATCC accession number 10231.

[6] = test system: Candida albicans ATCC 10231; assay: Antimicrobial assay I, modified protocol (tryptic soy broth), MFC; conditions: minimum fungicidal concentration, Table 4
Description: as §2, §3, §4

[7] = test system: Escherichia coli ATCC 25922; assay: Antimicrobial assay I, modified protocol (tryptic soy broth), MBC; conditions: minimum bactericidal concentration, Table 4
Description: as §2, §3, §4

[8] = test system: human leukocyte (WBC) cells; assay: Stimulation and proliferation of leukocytes, Alamar Blue; assay type: cell-based; conditions: compared to untreated positive control cells; Alamar Blue
Description: In vitro viability of human leukocyte cells in the presence of different peptides at different concentrations was determined by an Alamar Blue protocol. Alamar Blue (Promega, Madison, Wis.) is an indicator dye, formulated to measure quantitatively the proliferation and cytotoxicity of the cells. The dye consists of an oxidation-reduction (redox) indicator that yields a calorimetric change and a fluorescent signal in response to cellular metabolic activity.
Assay protocol: Blood from a human was drawn and centrifuged at 1500 rpm for 15 minutes at room temperature. The buffy coat cells at the plasma-red blood cell interface were aspirated. Buffy coat cells (mainly lymphocyte cells) were then transferred into 15 ml centrifuge tubes containing 5 ml of RPMI-1640 medium+10% Fetal Bovine Serum (Gibco, Grand Island, N.Y.). Additional medium was added to the tubes to bring the volume up to 10 ml. The buffy coat suspension was then carefully layered on 5 ml of Histopaque (Sigma Chemical Co., St. Louis, Mo.) and centrifuged at 1500 rpm for 30 minutes at room temperature. The interface which is mostly PBMCs (peripheral mononuclear cells) was aspirated and transferred to a 15 ml conical centrifuge tube and, resuspended in 2 ml cold RPMI-1640 and brought up to 15 ml with cold RPMI-1640 medium. Cells were centrifuged at 1500 rpm for 10 minutes. The supernatant was then aspirated and discarded. The cell pellet was re-suspended in 1 ml of cold RPMI 1640 and brought up to 15 ml with RPMI medium. This step was repeated twice, except that in the last step, the cells were resuspended with 1 ml of cold RPMI-1640 medium and cell counts were performed with a hemocytometer according to the Sigma cell culture catalogue.
Pokewood mitogen was used as a control along with positive and negative controls. Negative control cells were killed with 70% methanol. Positive (+) control cells were incubated in RPMI medium (untreated). […] of AlamarBlue was added to the cells, and readings were taken after 24 hours, 48 hours, 72 hours, and 96 hours using a fluorimeter (excitation 544/transmission 590 nm).
Calculations were performed using the following formula. The peptide treated sample and positive control were adjusted for negative control. [formula]
Using the protocol described immediately above, about 100-150 peptides were screened for their stimulatory and/or inhibitory actions upon the growth of human leukocyte (“WBC”) cells as compared to the growth of untreated positive control cells.
The Alamar Blue stain used in the protocol permeates both cell and nuclear membranes, and is metabolized in the mitochondria to cause the change in color. The resulting fluorometric response is therefore a result of total mitochondrial activity caused by cell stimulation and/or mitosis (cell proliferation).

WI38 = conditions: for LD50 WI38: WI38 normal lung fibroblast line
[9] = test system: Pseudomonas aeruginosa ATCC 9027; assay: Antimicrobial assay I, MIC by OD measurement; assay type: cell-based
[10] = LD50 WI38, WI38 normal lung fibroblast line, MTT, 24 hours with peptide
[11] = pH 7, hemolytic assay, concentration at 50% hemolysis, 1 hour at 37° C., read-out: LD50
[12] = WI-38 LD50, Table 26, valine substitution
[13] = pH 7, Table 26, valine substitution, read-out: Hemolysis RBC LD50
[14] = MTT, 24 hours with peptide, normal fibroblast line

Molecule	LD50 [2]	H1299 LD50 (H1299)	HeLaS3 LD50 (HeLaS3)	PC3 LD50 (PC3)	LD50 BMKC (BMKC)	LD50 MCF7 (MCF7)	LD50 SW480 (SW480)	MBC S. aur A.25923 [4]	MBC P. aerug A.27853 [5]	MFC Candida A.10231 [6]	CC50 at 24 h (in vitro [1]; [12])	HC50 at 1 h (in vitro [3]; [13])	MBC E. coli A.25922 [7]	WI38 LD50 (WI38; [14])	other results
FAKLLAKLAKKAA-NH2 [P93]	> (> indicates greater than 1000)	320 µg/mL	> (> indicates greater than 1000)	690 µg/mL											CC50 at 24 h (in vitro [1]; WI38 LD50, MTT, 24 hours with peptide, normal fibroblast line): 530 µg/mL
FAKKLAKKLKKLAKLALAL-OH [P29]					300 µg/mL	140 µg/mL	210 µg/mL								CC50 at 24 h (in vitro [1]; [10]): 520 µg/mL; HC50 at 1 h (in vitro [3]; [11]): 250 µg/mL; S. typhimurium 14028S MIC (S. typhimurium 14028S): 8; E. coli UB1005 MIC (E. coli UB1005): 8; P. aeruginosa H374 MIC (P. aeruginosa H374): 16 µg/mL
VALALKALKKALKKLKKALKKAL-NH2 [compound 30]								40 µg/mL	15 µg/mL	>50 µg/mL	93 µg/mL	150 µg/mL	10 µg/mL		
VALALKALKKLAKKLKKLAKKAL-NH2 [P509]															HC50 at 1 h (in vitro [3]; [11]): 40 µg/mL; stimulatory and/or inhibitory action on growth of human leukocyte (WBC) cells [8]: stimulatory (and/or proliferative) at all concentrations through 500 μg/ml
FALALKALKKLAKKLKKLAKKAL-NH2 [compound 25]								40 µg/mL	30 µg/mL	>50 µg/mL	24 µg/mL	16 µg/mL	40 µg/mL		
FAKKLAKKLKKLAKKLAK-OH [Shiva 10(1-18_AC]	> (> indicates greater than 1000)														
KFKKLAKKF-NH2 [P174]	> (> indicates greater than 1000)	> (> indicates greater than 1000)	> (> indicates greater than 1000)	> (> indicates greater than 1000)	> (> indicates greater than 1000)	> (> indicates greater than 1000)	> (> indicates greater than 1000)							> (> indicates greater than 1000)	LD50 WI38 (WI38; MTT, 24 hours with peptide): > (> indicates greater than 1000)
FKLAFKLAKKAFL-NH2 [P122]	> (> indicates greater than 1000)	830 µg/mL	780 µg/mL	800 µg/mL	700 µg/mL	360 µg/mL	570 µg/mL							720 µg/mL	CC50 at 24 h (in vitro [1]; [10]): 720 µg/mL
CC(C)C[C@H](NC(=O)[C@H](C)NC(=O)[C@H](CC(C)C)NC(=O)[C@H](CCCCN)NC(=O)[C@H](C)NC(=O)[C@H](CC(C)C)NC(=O)[C@H](CCCCN)NC(=O)[C@H](CCCCN)NC(=O)[C@H](C)NC(=O)[C@H](CC(C)C)NC(=O)[C@H](CCCCN)NC(=O)[C@H](C)NC(=O)[C@H](CC(C)C)NC(=O)[C@H](CCCCN)NC(=O)[C@H](CCCCN)NC(=O)[C@H](C)NC(=O)[C@@H](N)Cc1ccccc1)C(N)=O [compound 35]								10 µg/mL (≈ 5.39 µM)	8 µg/mL (≈ 4.31 µM)	>40 µg/mL	25 µg/mL (≈ 13.5 µM)	150 µg/mL	8 µg/mL (≈ 4.31 µM)		P. aerug (MIC) [9]: 200 µg/mL; HC50 at 1 h (in vitro [3]; pH 7, Table 27, read-out: Hemolysis (LD50)): 100 µg/mL; WI38 LD50 (WI38; Table 27): 25 µg/mL
KFKKLAKKW-NH2 [P175]	> (> indicates greater than 1000)	> (> indicates greater than 1000)	510 µg/mL	> (> indicates greater than 1000)	> (> indicates greater than 1000)	> (> indicates greater than 1000)	70 µg/mL							> (> indicates greater than 1000)	LD50 WI38 (WI38; MTT, 24 hours with peptide): > (> indicates greater than 1000)
FALALKALKKLLKKLKKLAKKAL-NH2 [compound 24]								>40 µg/mL	30 µg/mL	>50 µg/mL	55 µg/mL	10 µg/mL	>80 µg/mL		
KKVVFKVKFK-NH2 [P302, reference compound]	> (> indicates greater than 1000)	720 µg/mL	> (> indicates greater than 1000)	> (> indicates greater than 1000)	700 µg/mL	340 µg/mL	> (> indicates greater than 1000)							800 µg/mL	CC50 at 24 h (in vitro [1]; [10]): 800 µg/mL
CC(C)C[C@H](NC(=O)[C@H](CCCCN)NC(=O)[C@H](C)NC(=O)[C@H](CC(C)C)NC(=O)[C@H](CC(C)C)NC(=O)[C@H](CCCCN)NC(=O)[C@H](C)NC(=O)[C@@H](N)Cc1ccccc1)C(=O)N[C@@H](C)C(=O)N[C@@H](CCCCN)C(=O)N[C@@H](CCCCN)C(=O)N[C@@H](C)C(=O)N[C@@H](C)C(N)=O [compound 93]								>50 µg/mL	>50 µg/mL	>50 µg/mL			>50 µg/mL		
